Reference: PubChem BioAssay AID248 (DTP/NCI, 2004)
Values joined by “and” are separate entries in the source; they are usually repeats but may differ in a detail not shown here. Equal entries are not always repeated. Toxic doses and inconclusive results are not listed. Rule as the data show it: active = T/C of 150% or more; inactive = T/C below 125%.

System: L1210 leukemia ip in BDF1 mice, survival T/C
Experiment: NCI In Vivo Anticancer Drug Screen. Data for tumor model L1210 Leukemia (intraperitoneal) in B6D2F1 (BDF1) mice
Settings: endpoint: mean survival time, higher = longer survival
In short: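 Read-out is survival time, reported as the treated-group measurement over the vehicle-control measurement.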

[1] = dose: 100.0 mg/kg/injection, schedule: Q01DX009 (ip), vehicle: Klucel (hydroxypropylcellulose) (HPC)
[2] = dose: 100.0 mg/kg/injection, schedule: Q04DX003 (ip), vehicle: Klucel (hydroxypropylcellulose) (HPC)
[3] = dose: 200.0 mg/kg/injection, schedule: Q01DX009 (ip), vehicle: Klucel (hydroxypropylcellulose) (HPC)
[4] = dose: 200.0 mg/kg/injection, schedule: Q04DX003 (ip), vehicle: Klucel (hydroxypropylcellulose) (HPC)
[5] = dose: 400.0 mg/kg/injection, schedule: Q04DX003 (ip), vehicle: Klucel (hydroxypropylcellulose) (HPC)
[6] = dose: 100.0 mg/kg/injection, schedule: Q04DX003 (ip), vehicle: saline with Tween-80
[7] = dose: 200.0 mg/kg/injection, schedule: Q04DX003 (ip), vehicle: saline with Tween-80
[8] = dose: 400.0 mg/kg/injection, schedule: Q04DX003 (ip), vehicle: saline with Tween-80

Measured: T/C

CN[C@H]1CCc2cc(OC)c(OC)c(OC)c2-c2ccc(OC)c(=O)cc21
inactive: dose: 0.14 mg/kg/injection, schedule: Q01DX009 (ip), vehicle: saline 95 % of control | dose: 0.23 mg/kg/injection, schedule: Q01DX009 (ip), vehicle: saline 104 % of control | dose: 0.39 mg/kg/injection, schedule: Q01DX009 (ip), vehicle: saline 112 % of control | dose: 0.39 mg/kg/injection, schedule: Q04DX003 (ip), vehicle: saline 101 % of control | dose: 0.65 mg/kg/injection, schedule: Q01DX009 (ip), vehicle: saline 110 % of control | dose: 0.65 mg/kg/injection, schedule: Q04DX003 (ip), vehicle: saline 102 % of control | dose: 1.0 mg/kg/injection, schedule: Q03HX008 (ip), vehicle: saline 118 % of control | dose: 1.08 mg/kg/injection, schedule: Q01DX009 (ip), vehicle: saline 110 % of control | dose: 1.08 mg/kg/injection, schedule: Q04DX003 (ip), vehicle: saline 101 % of control | dose: 1.8 mg/kg/injection, schedule: Q04DX003 (ip), vehicle: saline 101 % of control | dose: 2.0 mg/kg/injection, schedule: Q01DX004 (ip), vehicle: saline 106 % of control | dose: 2.0 mg/kg/injection, schedule: Q01DX004 (oral), vehicle: saline 103 % of control | dose: 2.0 mg/kg/injection, schedule: Q03HX008 (ip), vehicle: saline 120 % of control | dose: 3.0 mg/kg/injection, schedule: Q01DX001 (ip), vehicle: saline 100 % of control | dose: 3.0 mg/kg/injection, schedule: Q04DX003 (ip), vehicle: saline 95 % of control | dose: 4.0 mg/kg/injection, schedule: Q01DX001 (oral), vehicle: saline 103 % of control | dose: 4.0 mg/kg/injection, schedule: Q01DX004 (ip), vehicle: saline 106 % of control | dose: 4.0 mg/kg/injection, schedule: Q01DX004 (oral), vehicle: saline 111 % of control | dose: 5.0 mg/kg/injection, schedule: Q01DX001 (ip), vehicle: saline 103 % of control | dose: 5.3 mg/kg/injection, schedule: Q01DX001 (ip), vehicle: saline 102 % of control | dose: 8.0 mg/kg/injection, schedule: Q01DX001 (ip), vehicle: saline 101 % of control and 102 % of control | dose: 8.0 mg/kg/injection, schedule: Q01DX001 (oral), vehicle: saline 108 % of control | dose: 8.0 mg/kg/injection, schedule: Q01DX004 (ip), vehicle: saline 113 % of control | dose: 8.0 mg/kg/injection, schedule: Q01DX004 (oral), vehicle: saline 111 % of control | dose: 8.0 mg/kg/injection, schedule: Q## X002 (ip), vehicle: saline 119 % of control | dose: 8.0 mg/kg/injection, schedule: Q## X003 (ip), vehicle: saline 100 % of control | dose: 8.0 mg/kg/injection, schedule: Q## X008 (ip), vehicle: saline 107 % of control | dose: 8.0 mg/kg/injection, schedule: Q## X016 (ip), vehicle: saline 110 % of control | dose: 9.0 mg/kg/injection, schedule: Q01DX001 (ip), vehicle: saline 104 % of control | dose: 12.0 mg/kg/injection, schedule: Q01DX001 (ip), vehicle: saline 104 % of control | dose: 16.0 mg/kg/injection, schedule: Q01DX001 (ip), vehicle: saline 105 % of control | dose: 16.0 mg/kg/injection, schedule: Q01DX001 (oral), vehicle: saline 109 % of control | dose: 16.0 mg/kg/injection, schedule: Q01DX004 (ip), vehicle: saline 118 % of control | dose: 16.0 mg/kg/injection, schedule: Q## X002 (ip), vehicle: saline 98 % of control | dose: 16.0 mg/kg/injection, schedule: Q## X003 (ip), vehicle: saline 112 % of control | dose: 16.0 mg/kg/injection, schedule: Q## X016 (ip), vehicle: saline 112 % of control | dose: 16.0 mg/kg/injection, schedule: Q## X024 (ip), vehicle: saline 100 % of control | dose: 18.0 mg/kg/injection, schedule: Q01DX001 (ip), vehicle: saline 114 % of control | dose: 32.0 mg/kg/injection, schedule: Q01DX001 (ip), vehicle: saline 101 % of control and 103 % of control | dose: 32.0 mg/kg/injection, schedule: Q01DX001 (oral), vehicle: saline 119 % of control and 124 % of control | dose: 32.0 mg/kg/injection, schedule: Q01DX009 (ip), vehicle: saline 102 % of control | dose: 32.0 mg/kg/injection, schedule: Q## X002 (ip), vehicle: saline 117 % of control | dose: 32.0 mg/kg/injection, schedule: Q## X003 (ip), vehicle: saline 104 % of control | dose: 32.0 mg/kg/injection, schedule: Q## X016 (ip), vehicle: saline 110 % of control | dose: 64.0 mg/kg/injection, schedule: Q01DX001 (ip), vehicle: saline 114 % of control and 116 % of control | dose: 64.0 mg/kg/injection, schedule: Q## X016 (ip), vehicle: saline 89 % of control | dose: 128.0 mg/kg/injection, schedule: Q01DX001 (ip), vehicle: saline 124 % of control | dose: 256.0 mg/kg/injection, schedule: Q01DX001 (ip), vehicle: saline 123 % of control
active: dose: 8.0 mg/kg/injection, schedule: Q03HX008 (ip), vehicle: saline 156 % of control

CCN(CC)CCCC(C)Nc1cccc2c1C(=O)c1ccccc1C2=O (stereo unspecified)
inactive: dose: 25.0 mg/kg/injection, schedule: Q01DX009 (ip), vehicle: saline 100 % of control | dose: 25.0 mg/kg/injection, schedule: Q04DX002 (ip), vehicle: saline 95 % of control | dose: 50.0 mg/kg/injection, schedule: Q01DX009 (ip), vehicle: saline 93 % of control | dose: 50.0 mg/kg/injection, schedule: Q04DX002 (ip), vehicle: saline 92 % of control | dose: 100.0 mg/kg/injection, schedule: Q01DX009 (ip), vehicle: saline 93 % of control | dose: 100.0 mg/kg/injection, schedule: Q04DX002 (ip), vehicle: saline 100 % of control and 92 % of control

C#CCCCCCCl
inactive: dose: 100.0 mg/kg/injection, schedule: Q01DX001 (ip), vehicle: other 95 % of control | dose: 200.0 mg/kg/injection, schedule: Q01DX001 (ip), vehicle: other 102 % of control

NCC(=O)c1cc2ccccc2[n+]([O-])c1
inactive: [1] 87 % of control | [2] 92 % of control | [3] 93 % of control | [4] 97 % of control | dose: 400.0 mg/kg/injection, schedule: Q01DX009 (ip), vehicle: Klucel (hydroxypropylcellulose) (HPC) 93 % of control | [5] 97 % of control

COc1ccc(OC)c2c(=O)c(C(=O)O)c[nH]c12
inactive: dose: 100.0 mg/kg/injection, schedule: Q01DX001 (ip), vehicle: saline 102 % of control | dose: 200.0 mg/kg/injection, schedule: Q01DX001 (ip), vehicle: saline 100 % of control | dose: 400.0 mg/kg/injection, schedule: Q01DX001 (ip), vehicle: saline 105 % of control

O=S(=O)(Nc1c(Cl)c(Cl)c(Cl)c(Cl)c1NS(=O)(=O)c1ccccc1)c1ccccc1
inactive: [1] 101 % of control | [2] 94 % of control | [3] 92 % of control | [4] 100 % of control | [5] 95 % of control

CC1(c2cccc(N)c2)OCCO1
inactive: dose: 100.0 mg/kg/injection, schedule: Q01DX009 (ip), vehicle: saline with Tween-80 100 % of control | [6] 94 % of control | dose: 200.0 mg/kg/injection, schedule: Q01DX009 (ip), vehicle: saline with Tween-80 102 % of control | [7] 100 % of control | dose: 400.0 mg/kg/injection, schedule: Q01DX009 (ip), vehicle: saline with Tween-80 91 % of control | [8] 97 % of control

CSc1nnc(SC)s1
inactive: [6] 104 % of control | [7] 93 % of control | [8] 93 % of control

O=S(=O)(/C=C\c1ccccc1)CBr
inactive: dose: 100.0 mg/kg/injection, schedule: Q04DX002 (ip), vehicle: Klucel (hydroxypropylcellulose) (HPC) 100 % of control | dose: 200.0 mg/kg/injection, schedule: Q04DX002 (ip), vehicle: Klucel (hydroxypropylcellulose) (HPC) 97 % of control | dose: 400.0 mg/kg/injection, schedule: Q04DX002 (ip), vehicle: Klucel (hydroxypropylcellulose) (HPC) 106 % of control

Cc1nc2n[nH]c(N)c2nc1C
inactive: dose: 100.0 mg/kg/injection, schedule: Q04DX003 (ip), vehicle: saline 98 % of control | dose: 200.0 mg/kg/injection, schedule: Q04DX003 (ip), vehicle: saline 91 % of control | dose: 400.0 mg/kg/injection, schedule: Q04DX003 (ip), vehicle: saline 88 % of control
